Experimental data taken from US20240352419A1, “METHODS AND COMPOSITIONS FOR DIFFERENTIATION OF PLURIPOTENT STEM CELLS AND DERIVED HEMATOPOIETIC LINEAGE CELLS” (NUWACELL BIOTECHNOLOGIES CO., LTD., priority 2022, published 2024).

How the values were obtained:
[1] = tested on: hiPSCs; test: Directed differentiation of hiPSCs into HE, HP and iNK cells (flow cytometry KDR, CD34, CD56); type: cell-based, human; settings: for output of CD34+ HP cells / output of CD56+ iNK cells: added during Stage 1-4 (XAV939 5 μM, SB431542 6 μM); for output of CD34+ HP cells: Day 10, vs control, FIG. 8A; for output of CD56+ iNK cells: Day 25, vs control, FIGS. 8B and 8C
Method: hiPSCs were prepared as described in CN108373998B. On Day −1, Embryoid body (EB) formation (Stage 1-1) was carried out by placing individualized hiPSCs in E8 medium containing 10 μM Blebbistatin in T25 flasks on a bellydancer and culture overnight. On Day 0, lateral mesoderm differentiation (Stage 1-2) was initiated by changing the medium to a Stage 1-2 differentiation medium comprising indicated basal medium (see Table 2.1) and supplemented with BMP4 (25 ng/ml), VEGF (50 ng/mL), bFGF (0.5 ng/ml) and CHIR99021 (4 μM) for 2 days. On Day 2, lateral mesoderm differentiation (Stage 1-3) continued for 1 day in a Stage 1-3 differentiation medium comprising indicated basal medium and supplemented with BMP4 (25 ng/mL), VEGF (50 ng/ml) and bFGF (0.5 ng/ml) and CHIR99021 (1 μM). On Day 3, HE specification (Stage 1-4) was initiated by adding a Stage 1-4 differentiation medium comprising indicated basal medium and supplemented with VEGF (50 ng/mL), bFGF (5 ng/mL), XAV939 (5 μM) for 1 day. On Day 4 (the end of Stage 1-4), EBs were dissociated into single cells and stained with KDR-APC antibody, the percentage of KDR^+ cells were detected by flow cytometry. HP differentiation (Stage 1-5) in was initiated by adding a Stage 1-5 differentiation medium comprising indicated basal medium and supplemented with SCF (10 ng/ml), Flt3L (10 ng/ml), VEGF (15 ng/ml) and bFGF (5 ng/mL) for 3 days. On Day 7 (the end of Stage 1-5), EBs were dissociated into single cells and stained with CD34− APC antibody, the percentage of CD34^+ HP cells was detected by flow cytometry. To initiate the differentiation from HP cells into iNK cells (Stage 2), EBs were collected and seeded in 6-well-plates coated with matrix proteins, DLL4 and VCAM1, in a Stage 2 differentiation medium comprising NKSFM and supplemented with SCF (20 ng/mL), Flt3L (10 ng/mL), IL-7 (25 ng/mL, Peprotech), IL-3 (5 ng/mL, Peprotech), IL-2 (700 IU/mL), IL-15 (10 ng/mL, Peprotech) for 14 days. On Day 21 (Stage 2-wk2), derived cells were counted and stained with CD56-PE antibody, the percentage of CD56^+ iNK cells were detected by flow cytometry. […] This improvement is attributed to the addition of NAM, PLT and Heparin sodium in NKSFM as compared with IF-4.
hiPSCs were prepared as described in CN108373998B. Basal medium used during Stage 2 of differentiation was also evaluated. On Day-1, Embryoid body (EB) formation (Stage 1-1) was carried out by placing individualized hiPSCs in E8 medium containing 10 μM Blebbistatin in T25 flasks on a shaker and cultured overnight. On Day 0, lateral mesoderm differentiation (Stage 1-2) was initiated by changing the medium to a Stage 1-2 differentiation medium comprising IF-4 basal medium and supplemented with BMP4 (25 ng/mL), VEGF (15 ng/mL), bFGF (0.5 ng/mL) and CHIR99021 (4 μM) for 2 days. On Day 2, lateral mesoderm differentiation (Stage 1-3) continued for 1 day in a Stage 1-3 differentiation medium comprising IF-4 basal medium and supplemented with BMP4 (25 ng/ml), VEGF (15 ng/mL) and bFGF (0.5 ng/mL) and CHIR99021 (4 μM). On Day 3, HE specification (Stage 1-4) was initiated by adding a Stage 1-4 differentiation medium comprising IF-4 basal medium and supplemented with VEGF (15 ng/mL), bFGF (5 ng/ml), SB431542 (6 μM) for 1 day. On Day 4 (the end of Stage 1-4), EBs were dissociated into single cells and stained with KDR-APC antibody, the percentage of KDR+ cells was detected by flow cytometry. HP differentiation (Stage 1-5) in was initiated by adding a Stage 1-5 differentiation medium comprising NKSFM and supplemented with SCF (50 ng/ml), Flt3L (10 ng/mL), VEGF (15 ng/mL) and bFGF (5 ng/mL) for 5 days. […]

[2] = tested on: PBNK cells; test: Expansion of PBNK cells from PBMCs (expansion fold, CD56+CD3- percentage by flow cytometry); type: cell-based; settings: effect of NAM concentration (0-5 mM) in basal medium
Method: The effect of the concentration of nicotinamide (NAM) in an exemplary basal medium on NK cell expansion was evaluated. The above basal medium comprised the following components: IMDM (Sigma):RPMI1640 (Gibco) (50%: 50%); about 1.3 ng/ml of Cupric sulfate, about 3 μM of Ferric sulfate, about 0.432 μg/mL of Zinc sulfate, about 1˜50 ng/ml of Na Selenite, about 110 μg/mL of Sodium pyruvate, 0.1˜20 μg/mL of Insulin, 1˜200 μg/mL of Transferrin, about 1% (v/v) of GlutaMAX-1, 0.1˜20 mg/mL of HSA, 1˜400 μM of MTG, about 80 μg/mL of Ascorbic acid and indicated concentration of NAM. Peripheral blood mononuclear cells (PBMCs) were isolated by density gradient centrifugation using Ficoll-Paque. On Day 0, PBMCs were plated at 1×10^6 cells/mL in a 48-well-plate in the basal medium with NAM (either 0, 1, 2, 2.5, 3, 3.5, 4, or 5 mM) and stimulated with the following reagents for 3 days: immobilized CD16 antibody (Biolegend, 302014) (135 ng/cm^2), IL-2 (700 IU/mL), IL-15 (10 ng/ml) and OK432 (0.01 KE/mL). On day 3, cells were re-suspended in the above basal medium supplemented with IL-2 (700 IU/mL) and IL-15 (10 ng/mL). Fresh medium was added every other day to maintain cell density below 2×10^6 cells/mL. Cells were collect on Day 14 and stained with CD56-PE and CD3-PerCP-Cy5.5 antibodies, the percentage of CD56^+CD3^− NK cells was analyzed by flow cytometry.
The effect of heparin sodium concentration in an exemplary NKSFM on NK cell expansion was also evaluated. NKSFM comprised the following components: IMDM (Sigma):DMEM/F12 (Gibco) (50%: 50%); about 20 μM of Ethanolamine, about 1˜50 ng/ml of Na Selenite, about 110 μg/mL of Sodium pyruvate, 0.1˜20 μg/mL of Insulin, 1˜200 μg/mL of Transferrin, about 1% (v/v) of GlutaMAX-1, 0.1˜20 mg/mL of Human serum albumin, 1˜400 μM of MTG, about 80 μg/mL of Ascorbic acid, about 1˜5 mM of NAM, 4% (v/v) of PLT, and indicated concentration of heparin sodium. PBMCs were isolated by density gradient centrifugation using Ficoll-Paque. On Day 0, PBMCs were plated at 1×10^6 cells/mL in a 48-well-plate in NKSFM with heparin sodium (0, 0.5, 1, 3, 10, 30, or 50 μg/mL) and stimulated with the following reagents for 3 days: immobilized CD16 antibody (Biolegend, 302014) (135 ng/cm^2), OK432 (0.01 KE/mL), NeoIL-2 (50 ng/ml), IL-12 (10 ng/mL), IL-18 (50 ng/mL). […] Cells were collect on Day 13 and stained with CD56-PE and CD3-PerCP-Cy5.5 antibodies, the percentage of CD56^+CD3^− NK cells was analyzed by flow cytometry. The specific lysis of K562 tumor cells by NK cells were assessed by CFSE/7-AAD cytotoxicity assay. […] After incubation for 4 hours, cells were stained with 7-AAD (Live/dead staining) and analyzed with flow cytometry.
The effect of PLT percentage (v/v) in an exemplary NKSFM on NK cell expansion was evaluated. […]

[3] = higher VEGF concentration during Stage 1-5

VEGF
percentage of KDR+ HE cells ([1]; different VEGF concentration (15-100 ng/mL) in Stage 1, FIG. 11A): minimal effects
percentage of CD34+ HP cells ([1]; different VEGF concentration (15-100 ng/mL) in Stage 1, FIG. 11B): significantly impacts
efficiency of further differentiation into iNK cells ([1]; different VEGF concentration (15-100 ng/mL) in Stage 1, cell morphology, FIG. 11C): significantly impacts
differentiation into HP cells and iNK cells ([1]; higher VEGF concentration during Stage 1-2 and Stage 1-3): generally beneficial
differentiation into HP cells [1, 3]: generally beneficial
differentiation into iNK cells [1, 3]: but not into iNK cells
HP and iNK cell differentiation ([1]; higher concentration of VEGF during Stage 1, especially Stage 1-2, 1-3 and 1-4, FIG. 12): significantly improves

Cc1c[nH]c(-c2cnc(NCCNc3ccc(C#N)cn3)nc2-c2ccc(Cl)cc2Cl)n1 [CHIR99021]
differentiation into CD34+ HP cells ([1]; higher concentration of CHIR99021 (5-8 μM) during Stage 1-2, FIG. 9A): generally more advantageous
differentiation into CD56+ iNK cells ([1]; higher concentration of CHIR99021 (5-8 μM) during Stage 1-2, FIGS. 9B and 9C): somewhat disadvantageous
differentiation into CD34+ HP cells ([1]; lower concentration of CHIR99021 (0-4 μM) during Stage 1-3, FIG. 10A): somewhat disadvantageous
differentiation into CD56+ iNK cells ([1]; lower concentration of CHIR99021 (0-4 μM) during Stage 1-3, FIGS. 10B and 10C): generally more advantageous

NC(=O)c1cccnc1 [NAM, nicotinamide]
NK cell expansion fold ([2]; Day 14, FIG. 2A): significantly impacts
percentage of CD56+CD3− NK cells ([2]; Day 14, FIG. 2B): minimal effects

Oc1nc(-c2ccc(C(F)(F)F)cc2)nc2c1CSCC2 [XAV939]
output of CD34+ HP cells [1]: significantly promotes
output of CD56+ iNK cells [1]: significantly promotes

NC(=O)c1ccc(-c2nc(-c3ccc4c(c3)OCO4)c(-c3ccccn3)[nH]2)cc1 [SB431542]
output of CD34+ HP cells [1]: improvement in increasing CD34^+ HP cell production at a certain degree
output of CD56+ iNK cells [1]: does not show any improvement
